Experimental data reported in a melting point compilation (Tetko et al.).

| melting point | SMILES |
| --- | --- |
| 149 to 151 °C | CC(=O)NC1(c2noc(CCC(=O)O)n2)CCCCCC1 |
| 54 to 56 °C | CN(CC(=O)O)S(C)(=O)=O |
| 136 to 140 °C | Nc1ccnn1Cc1cccc2ccccc12 |
| 116 to 118 °C | N#Cc1cccc(-n2cccn2)n1 |
| 135 to 137 °C | CC(=O)c1ccc(-n2cnc3ccccc32)cc1 |
| 154 to 156 °C | CN1C(=O)CCC(C(=O)O)C1c1cccs1 (configuration not stated) |
| 172 to 174 °C | CC(C)[C@H](NC(=O)c1c(F)cccc1F)C(=O)O |
| 138 to 140 °C | O=C(O)CCc1nc(-c2ccccc2)no1 |
| 90 to 92 °C | O=c1c(Cl)nccn1C1CC1 |
| 48 to 50 °C | CC(C)NC(=O)OCC(F)(F)F |
| 159 to 161 °C | COC(=O)c1cc2c(Br)cccc2[nH]1 |
| 209 to 211 °C | Nc1nnc(-c2cccc(Br)c2)o1 |
| 144 to 146 °C | O=C(O)c1cn(-c2ccc(Br)cc2Cl)nn1 |
| 139 to 141 °C | Nc1nc(-c2c(F)cccc2F)co1 |
| 72 to 74 °C | Clc1cn2ccccc2n1 |
| 72 to 74 °C | COC(=O)c1cc([N+](=O)[O-])cc(C)c1C |
| 152 to 154 °C | NC(=S)c1cccc(S(N)(=O)=O)c1 |
| 47 to 49 °C | CCOC(=O)NCCC(=O)O |
| 75 to 77 °C | ClCc1cc2c(cc1Br)OCCCO2 |
| 162 to 164 °C | NC1CCCCC1O (configuration not stated) |
| 347 to 349 °C | NC(=O)c1ccc(C(=O)O)cn1 |
| 169 to 171 °C | Nc1cc(C(=O)O)c(F)cc1F |
| 140 to 142 °C | Cc1ccc(C)c(NC(N)=S)c1 |
| 165 to 167 °C | Cc1nn(C)c(C(F)F)c1C(=O)O |
| 209 to 211 °C | COC(=O)c1c[nH]c(=O)c(N)c1 |
| 125 to 127 °C | COc1ccc(F)cc1C(F)(F)C(=O)O |

| melting point | SMILES |
| --- | --- |
| 121 to 123 °C | CS(=O)(=O)Nc1cc(F)ccc1N |
| 111 to 113 °C | O=Cc1ccc(-c2ccc(F)cc2)s1 |
| 212 to 214 °C | O=C(O)c1ccc(Cl)c(Cl)c1O |
| 203 to 205 °C | CC(C)C(=O)Nc1ccc(CNC(=O)n2ccnc2)cc1 |
| 103 to 105 °C | O=C1CCCOc2c1ccc(Cl)c2Cl |
| 89 to 91 °C | O=C1NCCCc2sccc21 |
| 179 to 181 °C | O=C(O)C1CC(=O)N(c2ccc3c(c2)CCC3)C1 (configuration not stated) |
| 104 to 106 °C | COc1ccc(OCCC(=O)O)cc1 |
| 112 to 114 °C | O=C(O)CCCOc1ccc(S(=O)(=O)Cl)cc1F |
| 149 to 151 °C | CC(C)(C)OC(=O)N1CCC(C)(C(=O)O)CC1 |
| 299 to 301 °C | Cn1c(Cl)nc2c1c(=O)[nH]c(=O)n2C |
| 61 to 63 °C | CC(N)c1ccc(N2CCOCC2)cc1 (configuration not stated) |
| 167 to 169 °C | NC1CCc2c(O)cccc21 (configuration not stated) |
| 339 to 341 °C | N#Cc1ccc(-c2ccncc2)[nH]c1=O |
| 170 to 172 °C | O=C1NC(=O)N(Cc2cccs2)C1=O |
| 249 to 251 °C | Nc1oc2ccccc2c(=O)c1C=O |
| 39 to 41 °C | COc1cc(C)c(N)cc1OC |
| 164 to 166 °C | COC(=O)C(=O)CC(=O)c1ccc(N2CCOCC2)cc1 |
| 84 to 86 °C | CC(C)C(Br)C(=O)N1CCc2sccc2C1 (configuration not stated) |
| 116 to 118 °C | NC(=NO)C1CN(Cc2ccccc2)CCO1 (configuration not stated) |
| 109 to 111 °C | CC(=O)c1ccc(CC(=O)O)cc1 |
| 276 to 278 °C | O=C(O)c1c[nH]nc1-c1ccc(Cl)cc1 |
| 62 to 64 °C | Cc1ccc(C)c(-n2ncc(N)c2C)c1 |
| 203 to 205 °C | O=C(O)CSc1nccn1-c1ccc(Br)cc1 |
| 102 to 104 °C | O=C(O)c1cccc(Oc2nccs2)c1 |
| 145 to 147 °C | CC(=O)Nc1cc(C#N)ccc1S(C)(=O)=O |

| melting point | SMILES |
| --- | --- |
| 143 to 145 °C | Cc1ccc(C)c(S(=O)(=O)N2CCN(C(=O)CCC(=O)O)CC2)c1 |
| 51 to 55 °C | COc1ccc(Cl)cc1CC#N |
| 142 to 144 °C | Nc1nc(-c2ccccc2Cl)cs1 |
| 196 to 198 °C | Cc1oncc1C(=O)Nc1ccc(N)c(C(F)(F)F)c1 |
| 189 to 191 °C | O=C(O)C=CC(=O)Nc1ccc(F)c(Cl)c1 |
| 113 to 115 °C | O=C1CCCc2c1sc1ccccc21 |
| 77 to 79 °C | O=C(c1cccnc1Cl)N1CCCC1 |
| 70 to 72 °C | O=C(CBr)c1ccc(S(=O)(=O)N2CCCCCC2)cc1 |
| 115 to 117 °C | O=C(Cc1nc(CCl)cs1)Nc1ccccc1 |
| 210 to 212 °C | Oc1ccc(-c2nnco2)cc1 |
| 144 to 146 °C | Cc1ccc(N)c2cccnc12 |
| 107 to 109 °C | Cn1ccnc1-c1ccc([N+](=O)[O-])cc1 |
| 107 to 109 °C | O=C(O)CCc1ccc2ccccc2n1 |
| 199 to 201 °C | O=C(O)c1ccc(Cl)c2cccnc12 |
| 116 to 118 °C | CC(C)(C)OC(=O)N1CCc2ncc(N)cc2C1 |
| 142 to 144 °C | NCc1ncc(-c2ccccc2)[nH]1 |
| 95 to 98 °C | O=C(NC(Cc1c[nH]c2ccccc12)C(=O)O)c1ccc(F)cc1 (configuration not stated) |
| 115 to 117 °C | CNS(=O)(=O)c1ccccc1CN |
| 136 to 138 °C | COC(=O)c1ccc(-n2cc(C)cn2)c(N)c1 |
| 257 to 259 °C | O=C(O)c1ccnc(C2CC2)c1 |
| 123 to 127 °C | CCN(CC)S(=O)(=O)c1ccc(N2CC(C(=O)O)CC2=O)cc1 (configuration not stated) |
| 104 to 106 °C | O=C(Nc1cccc(S(=O)(=O)C2CCCC2)c1)OCC(F)(F)F |
| 59 to 61 °C | S=C=Nc1ccc2ccccc2c1 |
| 105 to 107 °C | COC(=O)/C(C#N)=C/c1ccc(OC)cc1 |
| 228 to 230 °C | O=C1COc2ccc(C(=O)O)cc2N1 |
| 212 to 214 °C | Cc1ccc(C(=O)O)cc1S(=O)(=O)NCC#N |

| melting point | SMILES |
| --- | --- |
| 209 to 211 °C | Cc1ccc(F)cc1Nc1ncc(C(=O)O)cc1Cl |
| 72 to 74 °C | COc1ccc(SCCC(=O)O)cc1OC |
| 186 to 188 °C | Oc1ccc(-c2nc3ccccc3s2)cc1Cl |
| 260 to 262 °C | Sc1nnc(CN2CCCC2)n1-c1ccc(Cl)cc1 |
| 58 to 60 °C | O=C(O)c1ccccc1N1CCOCC1 |
| 110 to 112 °C | O=S(=O)(c1ccc2c(c1)CCCC2)N1CCNCC1 |
| 300 to 302 °C | CC(C)(C)c1cc(C(=O)O)cc(C(=O)O)c1 |
| 134 to 136 °C | CCOC(=O)/C(C#N)=C\Nc1ccc(C)cc1 |
| 151 to 155 °C | Cc1n[nH]c(C)c1CC(=O)O |
| 58 to 60 °C | NC(c1ccc(Cl)cc1)c1ccc(C(F)(F)F)cc1 (configuration not stated) |
| 184 to 186 °C | CS(=O)(=O)CCC(NC(=O)c1ccc(Cl)cc1)C(=O)O (configuration not stated) |
| 154 to 156 °C | CC(=O)NCc1ccc(-c2nc(N)sc2C)s1 |
| 50 to 52 °C | NCc1ccc(N2CCSCC2)cc1 |
| 223 to 225 °C | CN1CCCCC/C1=N/S(=O)(=O)c1ccc(N)cc1 |
| 142 to 144 °C | O=C(c1ccc2c(c1)CCCN2)N1CCOCC1 |
| 149 to 151 °C | SC1=Nc2ccccc2CS1 |
| 93 to 95 °C | N#Cc1ccc(Cl)cc1NCc1ccccc1 |
| 159 to 161 °C | O=C(O)c1oc2ccccc2c1CSc1nnc[nH]1 |
| 141 to 143 °C | CS(=O)(=O)Nc1ccc(S(=O)(=O)Cl)cc1 |
| 144 to 146 °C | CC(=O)Nc1cccc2c1CCCN2 |
| 67 to 69 °C | NC1CCN(c2ccccc2F)C1=O (configuration not stated) |
| 143 to 145 °C | CCN(CC)S(=O)(=O)c1ccc(C(=O)NCC(=O)O)cc1 |
| 66 to 68 °C | COc1ccc(Br)cc1NCc1cccnc1 |

| SMILES | melting point |
| --- | --- |
| CC(O)(CN)c1ccc(F)cc1 (configuration not stated) | 69 to 71 °C |
